Assay results reported in the supplement of paper PMC13380429.

Legend:
[1] = test system: A549-ACE2 infected with SARS-CoV-2; assay: cell count relative to DMSO; higher = less toxic; settings: 24 h
Calu-3 [2] = assay: cell viability relative to DMSO; higher = less toxic; settings: 72 h
Vero E6 [3] = assay: as above; settings: 72 h
U2OS [4] = assay: as above; settings: 72 h
Caco-2 [5] = assay: as above; settings: 72 h
HepG2 [6] = assay: as above; settings: 72 h
[7] = test system: A549-ACE2 infected with SARS-CoV-2; assay: SARS-CoV-2 infection rate relative to DMSO; higher = more infection; settings: 24 h
[8] = test system: A549-ACE2 infected with SARS-CoV-2; assay: morphology score (similarity to uninfected cells); higher = more like uninfected cells; settings: 24 h
Calu-3 [9] = assay: drug sensitivity score (DSS) for viability; higher = more toxic; extreme values may be limits of the assay; settings: 72 h
Vero E6 [10] = assay: as above; settings: 72 h
U2OS [11] = assay: as above; settings: 72 h
Caco-2 [12] = assay: as above; settings: 72 h
HepG2 [13] = assay: as above; settings: 72 h
A549-ACE2 [14] = assay: drug-induced phospholipidosis relative to tamoxifen; higher = more phospholipidosis
Calu-3 [15] = assay: relative viability EC50 (midpoint between 100% and the lowest measured viability); higher = less toxic; settings: 72 h
Vero E6 [16] = assay: as above; settings: 72 h
U2OS [17] = assay: as above; settings: 72 h
Caco-2 [18] = assay: as above; settings: 72 h
HepG2 [19] = assay: as above; settings: 72 h
A549-ACE2 [20] = assay: phospholipidosis EC50; higher = less potent phospholipidosis inducer

CCCc1cc(C)[nH]c(=O)c1CNC(=O)c1cc(-c2ccc(N3CCN(C(C)C)CC3)nc2)cc2c1cnn2C(C)C [UNC1999]
Settings | SARS-CoV-2 infection rate, [7] [%] | cell count, [1] [%] | cell viability, Caco-2 [5] [%] | cell viability, Calu-3 [2] [%] | cell viability, HepG2 [6] [%] | cell viability, U2OS [4] [%] | cell viability, Vero E6 [3] [%] | morphology score, [8]
1 nM | – | – | 107 | 94.2 | 109 | 99.1 | 95.6 | –
10 nM | – | – | 103 | 103 | 100 | 102 | 94.6 | –
100 nM | – | – | 97.6 | 96.5 | 93.3 | 99.3 | 95.2 | –
0.3 µM | 100 | 103 | – | – | – | – | – | 0.06
1000 nM | – | – | 96.9 | 91.4 | 99.6 | 107 | 84.7 | –
3 µM | 87 | 109 | – | – | – | – | – | 0.43
10 µM | 29 | 119 | – | – | – | – | – | 0.8
10000 nM | – | – | 83.9 | 89.4 | 88.7 | 102 | 107 | –
30 µM | 13 | 121 | – | – | – | – | – | 0.6

Settings | drug sensitivity score | relative viability EC50 [µM]
Caco-2 [12] | 0.6 | –
Caco-2 [18] | – | > 10
Calu-3 [9] | 0.1 | –
Calu-3 [15] | – | > 10
HepG2 [13] | 0 | –
HepG2 [19] | – | > 10
U2OS [11] | 0 | –
U2OS [17] | – | > 10
Vero E6 [10] | 0 | –
Vero E6 [16] | – | > 10

drug-induced phospholipidosis [%], A549-ACE2 [14]
Settings | 0.3 µM | 0.833333 µM | 3.33333 µM | 6.66667 µM | 10 µM | 30 µM
24 h | 15.7 | -2.03 | 5.96 | 5.07 | 18.5 | 38.5
48 h | 6.9 | -2.52 | 5.26 | 6.51 | 17.6 | 36.4
72 h | 1.41 | -4.2 | 4.48 | 4.14 | 13.9 | 37

CCN(CC)CCOc1ccc(C(O)(Cc2ccc(Cl)cc2)c2ccc(C)cc2)cc1 (centres undefined) [Triparanol]
Settings | morphology score, 0.1 µM | morphology score, 0.3 µM | morphology score, 1 µM | morphology score, 3 µM | phospholipidosis EC50, 24 h [µM] | phospholipidosis EC50, 48 h [µM] | phospholipidosis EC50, 72 h [µM]
A549-ACE2 [20] | – | – | – | – | 2.19 | 2.74 | 3.71
[8] | 0.02 | -0.17 | 0.22 | 0.85 | – | – | –

Settings | drug sensitivity score
Calu-3 [9] | 5.5
HepG2 [13] | 6.4
U2OS [11] | 1.3
Vero E6 [10] | 0.7

CCN1CCN(c2ccc(C(C)(C)NC(=O)c3cc4[nH]c5ccccc5c(=O)c4cc3F)cn2)CC1
Settings | SARS-CoV-2 infection rate [%] | cell count [%] | cell viability [%] | morphology score | phospholipidosis EC50 [µM]
A549-ACE2 [20], 24 h | – | – | – | – | 11.6
Caco-2 [5], 1 nM | – | – | 102 | – | –
Caco-2 [5], 10 nM | – | – | 105 | – | –
Caco-2 [5], 100 nM | – | – | 107 | – | –
Caco-2 [5], 1000 nM | – | – | 116 | – | –
Caco-2 [5], 10000 nM | – | – | 86.5 | – | –
Calu-3 [2], 1 nM | – | – | 96.4 | – | –
Calu-3 [2], 10 nM | – | – | 87.8 | – | –
Calu-3 [2], 100 nM | – | – | 92.7 | – | –
Calu-3 [2], 1000 nM | – | – | 76.7 | – | –
Calu-3 [2], 10000 nM | – | – | 43.3 | – | –
HepG2 [6], 1 nM | – | – | 95.7 | – | –
HepG2 [6], 10 nM | – | – | 104 | – | –
HepG2 [6], 100 nM | – | – | 103 | – | –
HepG2 [6], 1000 nM | – | – | 77 | – | –
HepG2 [6], 10000 nM | – | – | 52.9 | – | –
U2OS [4], 1 nM | – | – | 99.3 | – | –
U2OS [4], 10 nM | – | – | 96.5 | – | –
U2OS [4], 100 nM | – | – | 94.2 | – | –
U2OS [4], 1000 nM | – | – | 105 | – | –
U2OS [4], 10000 nM | – | – | 25.5 | – | –
Vero E6 [3], 1 nM | – | – | 109 | – | –
Vero E6 [3], 10 nM | – | – | 102 | – | –
Vero E6 [3], 100 nM | – | – | 102 | – | –
Vero E6 [3], 1000 nM | – | – | 97.2 | – | –
Vero E6 [3], 10000 nM | – | – | 92 | – | –
[1], 0.3 µM | – | 102 | – | – | –
[1], 3 µM | – | 93 | – | – | –
[1], 10 µM | – | 97 | – | – | –
[1], 30 µM | – | 72 | – | – | –
[7], 0.3 µM | 92 | – | – | – | –
[7], 3 µM | 34 | – | – | – | –
[7], 10 µM | 11 | – | – | – | –
[7], 30 µM | 25 | – | – | – | –
[8], 0.3 µM | – | – | – | 0.33 | –
[8], 3 µM | – | – | – | 0.74 | –
[8], 10 µM | – | – | – | 0.74 | –
[8], 30 µM | – | – | – | 0.53 | –

Settings | drug sensitivity score | relative viability EC50 [µM]
Caco-2 [12] | 0 | –
Caco-2 [18] | – | > 10
Calu-3 [9] | 5.6 | –
Calu-3 [15] | – | 1.18
HepG2 [13] | 5.4 | –
U2OS [11] | 3.7 | –
U2OS [17] | – | 3.53
Vero E6 [10] | 0 | –
Vero E6 [16] | – | > 10

drug-induced phospholipidosis [%], A549-ACE2 [14]
Settings | 0.3 µM | 0.833333 µM | 3.33333 µM | 6.66667 µM | 10 µM | 30 µM
24 h | 6.26 | -2.09 | -3.71 | 11.8 | 31.3 | 80.5
48 h | 4.42 | 0.5 | – | – | – | 67.5
72 h | 12.4 | 4.2 | – | – | – | –
